Experiments:
[1] = test system: MOLT-4 leukemia cell line; test: NCI DTP in vitro screen, MOLT-4; assay type: cell-based; conditions: Homo sapiens
Protocol: (§1) For example, the following methodology, which is currently employed by the NCI, can be used to assess the GI50 of a candidate compound of Formula I in the selected cancer cell lines. Briefly, cell suspensions are diluted (5000-40,000 cells per well) and 100 μL of the diluted cell suspension is added into 96-well microtiter plates. Inoculates are allowed a preincubation period of 24 h at 37° C. for stabilization. Dilutions at twice the intended test concentration of the candidate compound are added at time zero in 100 μL aliquots to the microtiter plate wells. Test compounds are generally evaluated at five 10-fold dilutions. In routine testing, the highest well concentration is usually 10E-4 M, but this may be adjusted depending on the compound being tested. […] The cells are then assayed by using the sulforhodamine B assay (see, for example, Skehan, P., et al. (1990) JNCI, J. Natl. Cancer Inst. 82, 1107-1112; and Chen, S. F., et al. (1990) Proc. Am. Assoc. Cancer Res. 31, A2644) employing a plate reader which can be used to read the optical densities.
(§2) Compounds 2 and 3 were evaluated for their antiproliferative effects in a panel of 60 human cancer cell lines as part of the in vitro anticancer screening services provided by the DTP (Developmental Therapeutics Program) of the US National Cancer Institute (NCI).

[2] = test system: fourth leukemia cell line (a myeloma cell line); test: NCI DTP in vitro screen, fourth leukemia cell line; assay type: cell-based; conditions: Homo sapiens
Protocol: as §1, §2

KLF4 protein = KLF4 protein in HT-29 cells, Western blot; assay type: cell-based, human; conditions: HT-29, 2.5, 5, 7.5 and 10 μM, 16 hours
Protocol: The ability of compound of Formula I to increase expression of KLF4 protein was determined as follows. HT-29 cells were treated with vehicle control (DMSO), TPEN (4 μM), ZnCl2 (100 μM), or compound 3 (2.5, 5, 7.5 and 10 μM) for 16 hours. Cells were lysed and subjected to Western blot with anti-KLF4 antibodies, or GAPDH antibodies to ensure equal protein loading.

[3] = test system: p21 (cyclin-dependent kinase inhibitor); test: p21 mRNA expression in HT-29 cells, real-time PCR; assay type: cell-based, human; conditions: HT-29, 1 μM, after 4 hr
Protocol: The effect of compounds of Formula I on the expression of genes regulated by KLF4 was determined as follows. Compound 3 was tested to determine its ability to increase the expression of the cell cycle regulator p21 (cyclin-dependent kinase inhibitor) in HT-29 colon carcinoma cells. […] HT-29 cells were incubated with DMSO (vehicle control), 35 μM ZnCl2, 1 μM or 4 μM TPEN, or 0.5 μM, 1 μM, 4 μM, or 7.5 μM compound 3 for 16 hours, and mRNA was extracted from the cells. The expression of p21 mRNA was analyzed by real-time polymerase chain reaction using the comparative CT method. This assay was carried out using methods described in Example 19.
The expressions of p21 gene and proteins were examined following treatment with compound 3. Gene expression of p21 in HT-29 cells treated with 1 μM compound 3 was determined at the indicated times as follows. Total RNA was extracted and gene expression level was determined by RT-PCR (FIG. 42A). The level of p21 protein in total cell lysate was measured by ELISA (FIG. 42B) as follows. HT-29 cells were treated with 1 μM compound 3 with and without 20 μM MG-132 (proteasome inhibitor) for indicated time.

KLF4 = KLF4 binding to Cyclin D1 promoter, ChIP, HT-29; assay type: cell-based, human; conditions: HT-29, ChIP
Protocol: Based on overlapping transcription factor binding sites on Cyclin D1 gene promoter region (FIG. 33A), increased binding of a negative regulator KLF4 may replace the binding of a positive regulator Sp1. In vivo KLF4 and Sp1 binding to Cyclin D1 promoter was shown by chromatin immuno-precipitation assay (ChIP) (FIG. 33B).
Chromatin immunoprecipitation (ChIP) was performed as follows. Cell lysates from HT-29 cells (5.5×10^5 cells in three 15 cm-culture plates in each experimental group) were prepared at the end of the indicated experiments, and ChIP assays were performed using anti-KLF4 and anti-Sp1 antibodies (Santa Cruz Biotechnology Inc.) and ChIP-ITTM kit (Active Motif, Carlsbad, Calif.) by following the manufacturer's instruction. The primers encompassing-231 to -92 region of Cyclin D1 promoter; 5′ primer (5′-CGGACTACAGGGGCAA-3′) [SEQ ID NO:1] and 3′ primer (5′-GCTCCAGGACTTTGCA-3′) [SEQ ID NO:2] were synthesized at Invitrogen.

HT-29 cells = test: HT-29 cell proliferation (XTT) after knock-down of KLF4 gene by siRNA; assay type: cell-based, human; conditions: HT-29, XTT
Protocol: Small interfering RNA (siRNA) transfection was performed as follows. Pre-designed MTF-1 siRNA (ID #115734) (Ambion, Austin, Tex.) was used to knockdown endogenous MTF-1 mRNA. Similarly, pre-designed KLF4 siRNA (ID #115492) (Ambion, Austin, Tex.) was used to knockdown endogenous KLF4 mRNA. A nonspecific, double-stranded RNA
was synthesized at Qiagen (Cambridge, Mass.) based on the sequence of an unrelated gene. HT-29 cells (3×10^5 cells in 35 mm-culture dishes) were transfected with indicated concentrations of siRNA or scrambled RNA control using Lipofectamine™ 2000 transfection reagent (Invitrogen) by following the manufacturer's instruction, for 6 hr. At the end of the incubation period, the transfection medium was supplemented with a complete growth medium and the cells were incubated at 37° C. for 24 hr before indicated experiments.

[4] = In vitro chelation of zinc ions, Zinquin fluorescence; assay type: physicochemical; conditions: ZnCl2 2 μM in PBS, Zinquin 10 μM, 30 min
Protocol: To determine the chelation property of compound 3 with zinc ions in vitro, free available zinc ions were measured by spectrofluorometry using zinc-sensitive fluorescent dye Zinquin, following pre-incubation of ZnCl2 with different concentrations of compound 3 (FIG. 36). ZnCl2 2 μM was incubated with indicated concentrations of compound 3, in phosphate buffer saline (PBS), followed by addition of Zinquin, 10 μM final concentration for 30 min. Zinquin fluorescence upon zinc binding was measured in a Fluoroskan Ascent luminescence spectrofluorometer, at 364 nm excitation and 485 nm emission wavelengths.

In the case of `Cc1[nH]c2ccccc2c1-c1nc2c3cccnc3c3ncccc3c2[nH]1` [Compound 3], the GI50 [1] was 0.016 µM, the GI50 [2] was 2.88 µM and the “level of KLF4 protein” value (KLF4 protein) was “able to increase the level of KLF4 protein”. The “p21 gene expression, change” value [3] was “Increased gene expression of p21”, the “KLF4 binding to Cyclin D1 promoter” value (KLF4) was “Increased KLF4” and the “cell growth inhibition after knock-down of KLF4 gene by siRNA” value (HT-29 cells) was “loss of compound 3-mediated cell growth inhibition”. For the same compound, the “Zinquin fluorescence (free zinc ions)” value [4] was “Dose-dependent decrease in Zinquin fluorescence”.
